The values below come from patent US8283337B2, “Therapeutic or prophylactic agent for vasoconstriction” (Next21 K.K., priority 2007, dated 2012).

Assay [1] relates to rat macrophage-like cells (RAW264.7). Description: Vasospastic cell model, PGE2/PGD2 production by ELISA after erythrocyte lysis solution. The conditions noted are these: blood pretreated with 10 wt % sugar, medium 5 wt % sugar, lysis solution 18 hours. The assay is classed as cell-based. Here is the method: A vasospastic cell model was constructed by using […] macrophage-like cells (RAW264.7) for study on whether trehalose has anti-inflammatory action.
Physiological saline (Sal), 10 wt % trehalose (Tre) and 10 wt % maltose (Mal) were added respectively to the blood collected from a rat (10 to 12 weeks of age, male) for pretreatment, and the mixture was processed in an ultrasonic homogenizer, to prepare an erythrocyte lysis solution. 1×10^6 or 2×10^6 of RAW264.7 cells were inoculated on a plate on the day before addition of the lysis solution, and were cultured in a medium comprising physiological saline, 5 wt % trehalose and 5 wt % maltose (respectively, as abbreviated to Sal, Tre and Mal) placed in an incubator (37° C., CO2: 5%). The culture medium used was Dulbecco's Modified Eagle Medium (D-MEM) comprising 10% fetal bovine serum (FBS), penicillin and streptomycin. The next day, the lysis solution was added in an amount of 1/10 of the medium, and the mixture was incubated in the incubator (37° C., CO2: 5%) for 18 hours. Then, the cells were washed with PBS; new medium was added; and the mixture was placed in the incubator (37° C., CO2: 5%). The medium was collected after one hour for ELISA analysis. The ELISA was carried out by using Prostaglandin E2 EIA kit-monoclonal (manufactured by Cayman) or Prostaglandin D2 EIA kit (manufactured by Cayman). […] For control, a lysis solution-untreated group (added respectively with physiological saline, trehalose and maltose) was also analyzed similarly (FIG. 8, FIG. 9: right column 3). Three or more independent tests were carried out to obtain the average, and the standard deviation obtained was expressed with error bars.
In general terms: ELISA stands for enzyme-linked immunosorbent assay.

Assay [2] has as its system normal human umbilical vein endothelial cells (HUVEC). Description: Vasospastic cell model, PGE2 production by ELISA after erythrocyte lysis solution. In kind it is cell-based. The following applies: lysis solution from blood pretreated with 10 wt % sugar, 6 hours. Here is the method: A vasospastic cell model was constructed by using normal human umbilical vein endothelial cells (HUVEC), for study on whether trehalose has anti-inflammatory action.
Physiological saline (Sal), 10 wt % trehalose (tre) and 10 wt % maltose (Mal) were added respectively to the bloods collected from a rat (10 to 12 weeks of age, male) for pretreatment, and the mixture was processed in an ultrasonic homogenizer, to prepare an erythrocyte lysis solution. The HUVEC cells were inoculated on a plate in an amount of 1×10^5 cells on the day before the addition of the lysis solution and were cultured in an incubator (37° C., CO2: 5%). The culture medium used was endothelial cell basic medium (EBM-2) comprising 2% fetalbovine serum (FBS), hEGF (human epidermal growth factor), heparin, hydrocortisone, ascorbic acid, VEGF (vascular endothelial growth factor), R3-IGF-1 (recombinant insulin-like growth factor-1), gentamicin and amphotericin-B. The next day, the lysis solution in an amount of 1/10 of the medium was added to the HUVEC cells, and the mixture was incubated in an incubator (37° C., CO2: 5%) for 6 hours. The medium was then collected for ELISA analysis. […] The lysis solution-untreated group (added respectively with physiological saline, trehalose and maltose) was also analyzed similarly as a control group (FIG. 10: right column 3). […]

For assay [3], the system named is femoral artery. The experiment in a line: Vasospasm model using rat femoral artery exposed to self blood. In kind it is in vivo. The conditions noted are these: 7 days after exposure; for arterial sectional area relative to saline-exposed artery: SD rat femoral artery. The source says: Twenty seven male SD rats of 10 weeks of age were divided into three groups randomly. These rats were properly anesthetized. The groin was cut open and then the femoral artery was divided and separated sufficiently from the surrounding soft tissue etc. The femoral artery was covered with a catheter. The catheter used was a 10 mm-length vinyl chloride cylindrical catheter. Self blood collected from femoral vein was fed into the space between the catheter and vascular adventitia and the bottom face of the cylinder was sealed with an adhesive agent. The adhesive agent used was a cyanoacrylate-based adhesive agent. The operations above were carried out aseptically and surgically. Then, the surgical injury was closed. The lumen of the blood-exposed femoral artery narrowed and the tunica intima and tunica media thickened, after peaking in about 7 days after exposure. This model is a model according to “Nakamura et al., Japan Neurosurgical Society, Abstract of 49th Annual Meeting 199, 1990”.
Left and right femoral arteries (FAs) of each rat were exposed to the substances shown in the following Table 1 by using the model above. 4% paraformaldehyde (PFA) solution was perfused, 7 days after commencement of exposure and each femoral artery was fixed and collected. The collected femoral artery (FA) was immersed in 4% PFA, and part of the femoral artery was immersed in sucrose solution and then embedded as frozen. A section of 5 μm in thickness was obtained with cryostat from the frozen femoral artery thus obtained. The section was subjected to hematoxylin-eosin staining (HE staining). The HE-stained sample was analyzed by using an image analyzer equipped with an image analysis program, and the sectional area of the lumen and the thickness of the tunica media in each tissue were determined. The radius of the blood vessel was determined from the peripheral length of the lumen of the blood vessel, and the lumen sectional area was calculated from it. In addition, the distance between the internal and external elastic layers was measured at four points, and the average thereof was determined, to obtain the thickness of the tunica media. There were cases when the blood vessel was cleaved or was not sufficiently fixed during analysis, and thus 6 samples, which were analyzed under favorable conditions, among 9 samples prepared in each group, were selected for collection of data.

The subject of assay [4] is basilar artery. The experiment in a line: Rabbit subarachnoid hemorrhage model, histological analysis of basilar artery. In kind it is in vivo. The conditions noted are these: group II, self blood + 15 wt % trehalose solution. As for the experimental part:
The vasospasm-inhibiting action of trehalose was analyzed via a histological method by using a rabbit subarachnoid hemorrhage model.
After the occipital region of a NZW rabbit (14 weeks of age, approximately 3.0 kg, male) was shaved and the cisterna magna was punctured, blood samples [group I: self blood+physiological saline (blood+Sal), group II: self blood+15 wt % trehalose solution (blood+Tre) and group III: physiological saline (Sal)] were injected into different test animals respectively in an amount of 3 ml. Additionally, 2 ml of blood sample and physiological saline (total of 5 ml) were injected to the same test animal by a similar method, two days later. Two days after the second administration, the animals were perfused with 4% paraformaldehyde for stabilization, and the brain stem and the basilar arteries were collected. The tissue was embedded in paraffin, cut into a section of 5 μm in thickness, and observed after hematoxylin-eosin staining (HE staining) The results are shown in FIG. 12.

In assay [5] the test system is cerebral vasospasm. The experiment in a line: Rabbit subarachnoid hemorrhage model, intracerebral blood flow by perfusion-MRI. In kind it is in vivo. The following applies: group II, self blood + 15 wt % trehalose solution into cisterna magna, two days after second administration; blood + saline group approximately 60%. Here is the method:
Intracerebral blood flow was evaluated via perfusion-MRI method by using a rabbit subarachnoid hemorrhage model for analysis of the vasospasm-inhibiting action of trehalose.
After magnetic resonance imaging (MRI) of a NZW rabbit (14 weeks of age, approximately 3.0 kg, male) in the normal state, the occipital region was shaved and the cisterna magna was punctured, and blood samples [group I: self blood+physiological saline (blood+Sal), group II: self blood+15 wt % trehalose solution (blood+Tre) and group III: physiological saline (Sal)] were injected into different test animals respectively in an amount of 3 ml. Additionally, 2 ml of blood sample and physiological saline (total of 5 ml) were injected to the same test animals by a similar method, two days later. Two days after the second administration, the influence of trehalose on cerebral vasospasm was evaluated via perfusion-MRI method (cerebrovascular normality is calculated by injecting a contrast medium through otic vein into the brain and determining the degree of recovery in brightness quantitatively) by using a high-definition MRI apparatus for animals (4.7 tesla, resolution: 50 μm) manufactured by Varian. Three independent tests were carried out to obtain the average, and the standard deviation obtained was expressed with error bars.

Where [6] appears, read: two days after second administration.

With `OC[C@H]1O[C@H](O[C@H]2[C@H](O)[C@@H](O)C(O)O[C@@H]2CO)[C@H](O)[C@@H](O)[C@@H]1O` (mixture of isomers) [maltose, reference compound], in assay [1], the “amount of PGD2 produced versus lysis solution-untreated control group” value is on record as “inflammatory reaction was also induced” and the “amount of PGE2 produced versus lysis solution-untreated control group” value is “inflammatory reaction was also induced”. In addition, the “PGE2 production (induction of inflammatory reaction) versus lysis solution-untreated control group” value in assay [2] was “inflammatory reaction was induced”.
Take `OC[C@H]1O[C@H](O[C@H]2O[C@H](CO)[C@@H](O)[C@H](O)[C@H]2O)[C@H](O)[C@@H](O)[C@@H]1O` [trehalose]: the “amount of PGD2 produced versus lysis solution-untreated control group” value in assay [1] is reported as “not increased”. Moreover, the “amount of PGE2 produced versus lysis solution-untreated control group” value in assay [1] is “not increased”. Also, the “arterial sectional area relative to saline-exposed artery” value turned out to be 86% in assay [3] (group II, trehalose 3.75 wt % (blood:15% TL solution = 3:1)) and 39% in assay [3] (group III, trehalose 7.5 wt % (blood:30% TL solution = 3:1)). In addition, the “tunica media thickness (after exposure to blood + trehalose / after exposure to physiological saline)” value in assay [3] (group II, trehalose 3.75 wt %) is 0.93 times; in assay [3] (group III, trehalose 7.5 wt %) it was 1.74 times. In addition, in assay [4] (basilar artery histology), the “vasospasm with respect to group I (self blood + physiological saline)” value was “suppressed definitely”. Besides, the “blood vessel diameter of basilar artery (HE staining)” value in assay [4] (setting [6]) is “no reduction of the blood vessel diameter”. Also, the “tunica media thickness of basilar artery (HE staining)” value in assay [4] (setting [6]) is recorded as “some increase in tunica media thickness”. Besides, the “normality of cerebral blood vessel (brightness after treatment/before treatment), physiological saline group = 100%” value in assay [5] was “approximately 80%”. For the same compound, the “PGE2 production (induction of inflammatory reaction) versus lysis solution-untreated control group” value in assay [2] was “induction of inflammatory reaction was suppressed”.
